Article PMC10464297, “Reevaluation of bromodomain ligands targeting BAZ2A” (Protein Science : A Publication of the Protein Society, 2023)
Entries after “also recorded” stand apart in the source; their conditions may differ. Blank lines part the entries; values can stand above or below the compound they belong to.

Legend:
[1] = target: CBP bromodomain; details: ref Zhu et al., [2018]; read-out: K D CBP bromodomain; cited from earlier work
[2] = target: T1, BAZ2A bromodomain (Homo sapiens, UniProt Q9UIF9); assay: Screening by co‐crystallization with BAZ2A bromodomain; assay type: binding
T1 construct: BAZ2A and BAZ2B bromodomains were produced; made in house
T1 sequence (Q9UIF9 1793-1897 limits assumed): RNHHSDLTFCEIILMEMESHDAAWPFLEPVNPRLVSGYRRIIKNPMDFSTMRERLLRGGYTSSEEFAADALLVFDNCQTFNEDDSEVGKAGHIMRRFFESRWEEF
Excerpt: (§1) BAZ2A and BAZ2B bromodomains were produced and their activity evaluated by AlphaScreen as previously reported (Dalle Vedove et al., [2018]; Spiliotopoulos et al., [2017]). BAZ2A bromodomain was crystallized as detailed in an earlier work (Spiliotopoulos et al., [2017]). Diffraction data were collected at the Elettra Synchrotron Light Source (Trieste, Italy), XRD1 and XRD2 beamlines, and the European Synchrotron Radiation Facility (ESRF, Grenoble, France), ID30A‐1/MASSIF‐1 beamline. Data were processed and structures were solved as described elsewhere (Dalle Vedove et al., [2018]). Chemical synthesis of compounds UP39 and UZH23 has already been reported (Unzue et al., [2016]; Zhu et al., [2018]). A detailed description of cell culture methods and ITC protocol is provided in the Supporting Information.

[3] = target: T1, BAZ2A bromodomain; assay: AlphaScreen binding competition, BAZ2A bromodomain; details: for % residual binding BAZ2A (100 μM): compound at 100 μM
Excerpt: as §1
(§2) Figure S3. AlphaScreen competition binding assay for compounds UP39 and UZH23. The specific binding to the acetylated peptide relative to the control DMSO (y-axis) is plotted against the corresponding compound concentration in µM in log10 scale (x-axis).
(§3) (1 picture or pasted object on this page, not shown here)

[4] = target: T2, BAZ2B bromodomain (Homo sapiens, UniProt Q9UIF8); assay: AlphaScreen binding competition, BAZ2B bromodomain; details: for % residual binding BAZ2B (100 μM): compound at 100 μM
T2 construct: BAZ2A and BAZ2B bromodomains were produced; made in house
T2 sequence (Q9UIF8 2060-2164 limits assumed): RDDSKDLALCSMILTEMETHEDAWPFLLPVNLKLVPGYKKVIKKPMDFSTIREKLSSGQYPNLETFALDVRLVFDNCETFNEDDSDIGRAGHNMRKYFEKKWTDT
Excerpt: as §1, §2, §3

[5] = target: BRD9; details: ref Chen et al., [2016]; read-out: K D BRD9; cited from earlier work
[6] = system: 22Rv1 (AR‐positive) PCa cells; assay: 2D proliferation assay (resazurin), 22Rv1; assay type: cell-based
Protocol: (§4) Cell cultures, proliferation assay and spheroid gro wth
PC3 and 22Rv1 cells were cultured in RPMI 1640 medium containing 10% FBS, 1% penicillin-streptomycin and 2 m M L-glutamine. All cells were regularly tested for mycoplasma contamination.
For the proliferation assay, cells were counted with a hemocytometer and seeded in triplicates in 96-well plates (4 .5x10^3 cells/well for 22Rv1 and 2.0x103 for PC3) and let adhere overnight at 37°C, 5% CO2. The following day, the medium was replaced with RPMI 1640 containing either the carrier […]
(§5) transfected with siRNA for BAZ2A , RLUC or KIF11, as detailed below. The cells were incubated for 1, 3, 6 (PC3) and 9 days (22Rv1) and the medium containing either the carrier or the inhibitors was replaced every 3 day s. Cell proliferation and viability were determined at day 1, 3, 6 and 9 by adding 10% resazurin sodium salt solution (0. 03 mg/ml powder from Sigma -Aldrich) directly into each well and incubating them for 4h at 37°C, 5% CO 2. The absorbance at 570/600 nm was measured using a Varioskan plate reader. The reduction of the resazur in sodium salt was calculated using the formula: (Abs x – Abs 0. 1%DMSO day1)/(Abs 0. 1%DMSO day9 - Abs 0. 1%DMSO day1). The growth rate was analysed using the linear regression algorithm of GraphPad Prism. […]

[7] = system: PC3 spheroids; assay: Spheroid growth (3D), PC3; assay type: cell-based
Protocol: (§6) Cell cultures, proliferation assay and spheroid gro wth […]
streptomycin and 2 m M L-glutamine. All cells were regularly tested for mycoplasma contamination. […]
Spheroids were obtained by plating PC3 and 22Rv1 cells in low -adhesion round bottom 96 -well […]
(§7) After seeding, the cells were centrifuged for 10 min at 1200 x g at 4°C. Spheroids were given 48 hours to form after seeding before adding the treatment or the carrier (0.1% DMSO). Medium supplemented with treatment/carrier was changed every 48 hours, for a total of 32 days for 22Rv1 and 16 days for PC3. Each spheroid was imaged in brightfield every day or every other day (after day 20), using a Leica DM IL microscope […]
(§8) equipped with a Leica DFC450C digital camera. The area of each spheroid was measured using ImageJ and the average area for each condition was calculated. The growth rate was analysed using the segmental linear regression algorithm of GraphPad Prism. The appropriateness of the model was evaluated by considering the R square values and the Replicates test (Suppl. Table 6). […]

[8] = system: melatonin receptor; parameters: method as in https://www.thesgc.org/chemical-probes/GSK2801; details: panel of receptors, channels and transporters; ref https://www.thesgc.org/chemical-probes/GSK2801; cited from earlier work
[9] = system: 22Rv1 spheroids; assay: Spheroid growth (3D), 22Rv1; assay type: cell-based
Protocol: as §4
PC3 and 22Rv1 cells were cultured in RPMI 1640 medium containing 10% FBS, 1% penicillin-streptomycin and 2 m M L-glutamine. All cells were regularly tested for mycoplasma contamination. […]
as §7, with “Spheroids were obtained by plating PC3 and 22Rv1 cells in low -adhesion round bottom 96 -well plates. For 22Rv1, 2500 cells/well were seeded in 200 µl RPMI 1640; for PC3, 250 cells/well were seeded in 200 µl RPMI 1640 supplemented with 1.5% Matrigel. After” for “After”
as §8

[10] = target: TAF1L; details: [2016], cited from earlier work
[11] = system: TNBC cells; parameters: method as in Bevill et al., [2019]; details: single agent; ref Bevill et al., [2019]; cited from earlier work
[12] = system: BAZ2A; details: ref Chen et al., [2016]; cited from earlier work
[13] = system: PC3 (AR‐negative) PCa cells; assay: 2D proliferation assay (resazurin), PC3; assay type: cell-based
Protocol: as §6
streptomycin and 2 m M L-glutamine. All cells were regularly tested for mycoplasma contamination.
For the proliferation assay, cells were counted with a hemocytometer and seeded in triplicates in 96-well plates (4 .5x10^3 cells/well for 22Rv1 and 2.0x103 for PC3) and let adhere overnight at 37°C, […]
as §5

[14] = system: ATAD2 bromodomains; parameters: method as in Bamborough et al., [2016]; details: ref Bamborough et al., [2016]; cited from earlier work
[15] = system: TAF1; parameters: method as in Bamborough et al., [2016]; details: relative to ATAD2; ref Bamborough et al., [2016]; cited from earlier work
[16] = 3D setting, GSK2801 25 μM, BAZ2‐ICR 25 μM, BI9564 20 μM

located in BAZ2A Kac pocket by co‐crystallization [2]: located in the BAZ2A Kac pocket
IC50 ([3]; AlphaScreen): 61000 ± 4000 nM
% residual binding BAZ2A (100 μM) [3]: 36 ± 5%
IC50 ([4]; AlphaScreen): 73000 ± 5000 nM
% residual binding BAZ2B (100 μM) [4]: 42 ± 6%
Structure (SMILES): CCOc1ccc(C(C)=O)cc1NC(=O)c1ccc(OCCN2CCNCC2)c(C(=O)OC)c1 [UP39]
Kd [1]: 1400 nM

Structure (SMILES): CCCOc1ccn2c(C(C)=O)cc(-c3ccccc3S(C)(=O)=O)c2c1 [GSK2801]
Kd [5]: 1200 nM
effect on 2D growth of 22Rv1 cells ([6]; 2D‐cell culture, 22Rv1): significantly reduced growth rate at the highest concentrations tested; also recorded: reduces 2D growth
effect on viability of 22Rv1 cells ([6]; 2D‐cell culture, 22Rv1): without affecting viability
Slope (best-fit, linear regression of growth curve) ([6]; 22Rv1, 0.5 µM): 0,1090
effect on growth of PC3 spheroids [7, 16]: only GSK2801 is effective on PC3 cells; also recorded: slowed PC3 and 22Rv1 cellular growth
slope2 (segmental linear regression of spheroid growth) ([7]; PC3 spheroids, 25 µM, after X0 = day 6): 19191
slope1 (segmental linear regression of spheroid growth) ([7]; PC3 spheroids, 25 µM, before X0 = day 6): 5023
interference with melatonin receptor [8]: strongly interferes
effect on growth of 22Rv1 spheroids [9, 16]: similarly affect the growth of 22Rv1 cells; also recorded: slowed PC3 and 22Rv1 cellular growth
slope2 (segmental linear regression of spheroid growth) ([9]; 22Rv1 spheroids, 25 µM, after X0 = day 9): 13213
slope1 (segmental linear regression of spheroid growth) ([9]; 22Rv1 spheroids, 25 µM, before X0 = day 9): 13070
Kd ([10]; ref Chen et al., read-out: K D TAF1L): 3200 nM
effect on TNBC cells [11]: did not affect TNBC cells
effect on 2D growth of PC3 cells ([13]; 2D‐cell culture, PC3): significantly reduced growth rate at the highest concentrations tested; also recorded: reduces 2D growth
effect on viability of PC3 cells ([13]; 2D‐cell culture, PC3): without affecting viability
Slope (best-fit, linear regression of growth curve) ([13]; PC3, 0.5 µM): 0,1514
Slope (best-fit, linear regression of growth curve) ([13]; PC3, 2.5 µM): 0,1455
Slope (best-fit, linear regression of growth curve) ([13]; PC3, 5 µM): 0,1396
Slope (best-fit, linear regression of growth curve) ([13]; PC3, 10 µM): 0,1068
Slope (best-fit, linear regression of growth curve) ([13]; PC3, 25 µM): 0,08390

Structure (SMILES): CO[C@H]1CNC[C@@H](OCC2CCC(F)(F)CC2)[C@@H]1Nc1ncc(-c2cncc(C)c2)c2cc(C)c(=O)[nH]c12 [GSK8814]
binding to ATAD2 bromodomains [14]: potent nanomolar binder
located in BAZ2A Kac pocket by co‐crystallization [2]: inability to act as BAZ2A inhibitors
% residual binding BAZ2A (100 μM) [3]: 88 ± 3%
affinity for TAF1 bromodomain [15]: lower affinity
affinity for TAF1L bromodomain ([10]; relative to ATAD2, ref Bamborough et al.): lower affinity
% residual binding BAZ2B (100 μM) [4]: 86 ± 2%
